Where “and” joins values, the source holds several entries; their conditions need not be identical. Equal entries are not always repeated. Where two headings read alike, the source gives them in different places. Values belong to the compound of their own block, whether it stands above or below them.
Columns and labels:
[1] = target: GCGR (Homo sapiens, UniProt P47871); experiment: cAMP receptor activation assay, human GCGR cloned into CHO cells (DiscoverX LeadHunter / cAMP Hunter); assay type: cell-based; parameters: host or cells: CHO-K1; settings: for EC50: cAMP, CHO cells
[2] = target: T1, human GLP-1R (Homo sapiens, UniProt P43220); experiment: cAMP receptor activation assay, human GLP-1R cloned into CHO cells (DiscoverX LeadHunter / cAMP Hunter); assay type: cell-based; settings: for Selectivity Ratio GLP-1R vs GCGR: SR = GCGR EC50/GLP-1 EC50, 0.1% BSA
T1 construct: host or cells: CHO-K1

[3] = pharmacokinetics in Gottingen minipigs (cassette sc dosing, 20 nmol/kg); assay type: in vivo, Gottingen minipig; settings: 20 nmol/kg sc, analogue 2 at 4 h, 4 at 2-12 h, 5 at 2, 12, 24 h
Excerpt: This study uses a cassette style dosing, to minimize large animal usage, but with injection subcutaneously at separate sites to preclude each compound's influencing uptake of another compound. A total of two male Gottingen minipigs were assigned to study. The animals were pair housed in pens on raised floor caging. The animals weighed between approximately 11-15 kg at transfer and approximately 5-8 months of age. The same animals were to be used for multiple phases, following a minimum 1-week washout period. To facilitate dosing and to ensure animal safety during the dosing procedure, animals were sedated with Telazol (IM, 4-6 mg/kg) prior to dosing. Dosing was subcutaneous via bolus injection between the skin and underlying layers of tissue in the ventral region of the animal. A total of […] sites were used for each phase with different compounds dosed at each of the 4 sites. Compounds are formulated in saline containing 0.2% BSA […] at pH 3.5. Each stock solution was diluted with normal saline (pH 7.4) to the required final conc and sterile filtered. Dosing is at 20 nmol/kg. Blood samples were collected pre-dose and at 2, 4, 6, 8, 12, 24, 36, 48, 72 and 96-hours post-dose. At each blood collection time point a 1 mL sample is taken from the jugular vein into K2EDTA tubes on ice before processing to plasma by centrifugation. The plasma samples containing the 4 test compounds were sent to Climax Labs for separation and quantitation by LC-MS/MS as noted below (2.5.3).
Analysis was carried out at Climax Laboratories (San Jose, Calif.) on an API-4000 Mass Spectrometer, ESI positive, MRM scan. Samples were loaded on a Shimadzu HPLC/CTC Autosampler with an ACE C4 column (2.1×50 mm, 5 μm). Elution was by gradient from aqueous 0.5% formic acid, 5 mM NH4OAc to 0.5% formic acid in CH3CN/H2O (9:1). […] After transfer to a 96 well plate, a 40 μL sample was injected and the individual compound peaks were quantitated with standard curves. […] The quantitation limit is 1-2 ng/mL, depending on analog structure.

[4] = tested on: DIO-NASH mice; experiment: DIO-NASH mouse study, 12 weeks of QD dosing; assay type: in vivo
Procedure: All mice entering the experiment have been pre-biopsied, stratified based on liver biopsy (only animals with fibrosis 1 or above and steatosis 2 or above are included) animals stratified into groups based on Col1a1 immunostaining. […] Body weight (BW) was measured daily for the entire study period, food intake daily for the first 14 days then weekly until study end. Terminal plasma was measured for ALT/AST/TG/TC levels. Terminal liver removal and sampling was carried out for pre to post NAFLD Activity Score (NAS; HE staining) including Fibrosis Stage (Picrosirius red, PSR). Terminal histology was carried out for steatosis, Col1a1 and galectin-3 quantitation. Terminal liver workup included TG+TC (extraction and measurement). Terminal liver biopsies were set up in: 1) 4% PFA for histology, 2) fresh frozen liver for biochemistry, 3) fresh frozen liver for RNA extraction and RNAseq.

[5] = CMC of Polysorbate 80 in F58 buffer pH 7.7 with added ALT-801 by surface tensiometry; assay type: physicochemical
Excerpt: CMC shifts are simply calculated as CMC in the presence of the ALT-801 less the CMC for the surfactant alone in solution.

[6] = cAMP, CHO cells, 0.1% BSA containing buffers, read-out: pEC50 (SE) hu GLP-1 (converted)
[7] = 0.1% OVA containing buffers, read-out: EC50 hGCGR

Sequence of GCGR (P47871 26-477): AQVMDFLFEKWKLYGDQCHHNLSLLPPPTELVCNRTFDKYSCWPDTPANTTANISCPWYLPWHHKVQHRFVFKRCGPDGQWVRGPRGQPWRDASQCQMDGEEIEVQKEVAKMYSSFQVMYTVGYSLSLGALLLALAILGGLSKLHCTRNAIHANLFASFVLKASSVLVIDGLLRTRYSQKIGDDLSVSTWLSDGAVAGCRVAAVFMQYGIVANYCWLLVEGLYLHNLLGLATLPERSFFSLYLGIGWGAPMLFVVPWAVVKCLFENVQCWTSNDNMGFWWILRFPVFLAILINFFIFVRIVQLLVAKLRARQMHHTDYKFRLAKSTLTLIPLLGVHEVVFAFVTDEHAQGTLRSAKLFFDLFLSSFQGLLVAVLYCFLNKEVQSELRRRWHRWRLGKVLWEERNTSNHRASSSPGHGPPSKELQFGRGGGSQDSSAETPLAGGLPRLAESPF
T1 sequence (P43220 24-463): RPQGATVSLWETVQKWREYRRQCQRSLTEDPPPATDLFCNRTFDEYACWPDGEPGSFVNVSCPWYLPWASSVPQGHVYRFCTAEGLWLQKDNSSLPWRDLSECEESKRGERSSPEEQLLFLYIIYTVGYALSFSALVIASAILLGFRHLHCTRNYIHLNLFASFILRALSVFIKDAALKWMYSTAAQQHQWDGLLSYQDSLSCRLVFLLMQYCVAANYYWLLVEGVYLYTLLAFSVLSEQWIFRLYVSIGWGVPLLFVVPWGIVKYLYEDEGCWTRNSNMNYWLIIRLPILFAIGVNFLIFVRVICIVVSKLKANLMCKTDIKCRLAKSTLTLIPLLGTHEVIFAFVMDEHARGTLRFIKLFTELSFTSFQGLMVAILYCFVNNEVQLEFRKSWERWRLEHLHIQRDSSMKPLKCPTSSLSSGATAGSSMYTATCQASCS

Compound: CCCCCCCCCCO[C@@H]1O[C@H](C(=O)NCCCC[C@H](NC(=O)[C@@H](NC(=O)[C@H](Cc2ccccc2)NC(=O)[C@H](CCC(=O)O)NC(=O)[C@@H]2CCCCNC(=O)CC[C@H](NC(=O)[C@H](CC(=O)O)NC(=O)[C@H](CC(C)C)NC(=O)[C@H](Cc3ccc(O)cc3)NC(=O)[C@H](CCCCN)NC(=O)[C@H](CO)NC(=O)[C@H](Cc3ccc(O)cc3)NC(=O)[C@H](CC(=O)O)NC(=O)[C@H](CO)NC(=O)[C@@H](NC(=O)[C@H](Cc3ccccc3)NC(=O)[C@@H](NC(=O)CNC(=O)[C@H](CCC(N)=O)NC(=O)C(C)(C)NC(=O)[C@@H](N)Cc3c[nH]cn3)[C@@H](C)O)[C@@H](C)O)C(=O)N[C@@H](CCC(N)=O)C(=O)N[C@@H](C)C(=O)N[C@@H](C)C(=O)N2)[C@@H](C)CC)C(=O)N[C@@H](Cc2c[nH]c3ccccc23)C(=O)N[C@@H](CC(C)C)C(=O)N[C@@H](CC(C)C)C(=O)N[C@@H](CCC(N)=O)C(=O)N[C@H](C(N)=O)[C@@H](C)O)[C@@H](O)[C@H](O)[C@H]1O [analogue 2]
EC50 ([1]; 0.1% BSA containing buffers, read-out: pEC50 (SE) huGCGR (converted)): 0.02 nM
Selectivity Ratio GLP-1R vs GCGR [2]: 2
EC50 [2, 6]: 0.0126 nM
plasma levels compared to liraglutide [3]: Significantly higher plasma levels

Compound: CCCCCCCCCCCCCCO[C@@H]1O[C@H](C(=O)N[C@@H](CCC(=O)NCCCC[C@H](NC(=O)[C@@H](NC(=O)[C@H](Cc2ccccc2)NC(=O)[C@H](CCC(=O)O)NC(=O)[C@@H]2CCCCNC(=O)CC[C@H](NC(=O)[C@H](CC(=O)O)NC(=O)[C@H](CC(C)C)NC(=O)[C@H](Cc3ccc(O)cc3)NC(=O)[C@H](CCCCN)NC(=O)[C@H](CO)NC(=O)[C@H](Cc3ccc(O)cc3)NC(=O)[C@H](CC(=O)O)NC(=O)[C@H](CO)NC(=O)[C@@H](NC(=O)[C@H](Cc3ccccc3)NC(=O)[C@@H](NC(=O)CNC(=O)[C@H](CCC(N)=O)NC(=O)C(C)(C)NC(=O)[C@@H](N)Cc3c[nH]cn3)[C@@H](C)O)[C@@H](C)O)C(=O)N[C@@H](CCC(N)=O)C(=O)N[C@@H](C)C(=O)N[C@@H](C)C(=O)N2)[C@@H](C)CC)C(=O)N[C@@H](Cc2c[nH]c3ccccc23)C(=O)N[C@@H](CC(C)C)C(=O)N[C@@H](CC(C)C)C(=O)N[C@@H](CCC(N)=O)C(=O)N[C@H](C(N)=O)[C@@H](C)O)C(=O)O)[C@@H](O)[C@H](O)[C@H]1O [analogue 14]
GCGR activation potency (vs 4) [1]: significantly weakened GCGR activation potency
Selectivity Ratio GLP-1R vs GCGR [2]: 2
EC50 [2, 6]: 0.0427 nM

Compound: CSc1ccc(C(=O)/C=C/c2cc(C)c(OC(C)(C)C(=O)O)c(C)c2)cc1 [elafibranor]
body weight compared to NASH control (p≤0.001) ([4]; ALT-801 5 and 10 nmol/kg, elafibranor 78 μmol/kg, semaglutide 10 nmol/kg): statistically significantly decreased body weight
NAFLD activity score (NAS) reduction compared to the start of treatment ([4]; NASH mice, 78 μmol/kg PO QD, 12 weeks): 42%
expression of cell death genes vs NASH vehicle control ([4]; NASH mice, liver RNAseq): No statistical differences
expression of genes affecting fat usage and transport vs NASH vehicle control ([4]; NASH mice, liver RNAseq): significantly lower GPAT2 (p<0.001) and GPAT4 (p<0.001)
expression of liver inflammation genes (FOSB, JUN, TLR4) vs NASH vehicle control ([4]; NASH mice, liver RNAseq): No statistically significant changes
number of differentially expressed genes (liver RNA sequencing) ([4]; NASH mice, high dose ALT-801, elafibranor, semaglutide): ~5800

Compound: Polysorbate 80
CMC Shift Due to ALT-801 ([5]; 5.0 mg/ml ALT-801): 5.16 mg/mL
Extent of Interaction mg PS80/mg ALT-801 ([5]; 5.0 mg/ml ALT-801): 1.03 mg/mg
Extent of Interaction moles PS80/molesALT-801 ([5]; 5.0 mg/ml ALT-801): 3.05 mole/mole
CMC Shift Due to ALT-801 ([5]; 10.0 mg/ml ALT-801): 10.32 mg/mL
Extent of Interaction mg PS80/mg ALT-801 ([5]; 10.0 mg/ml ALT-801): 1.03 mg/mg
Extent of Interaction moles PS80/molesALT-801 ([5]; 10.0 mg/ml ALT-801): 3.05 mole/mole
Polysorbate 80 CMC Value 5.0 mg/ml ALT-801, Average ([5]; F58 buffer pH 7.7, 5.0 mg/ml ALT-801): 5.34 mg/mL
Polysorbate 80 CMC Value 5.0 mg/ml ALT-801 ([5]; F58 buffer pH 7.7, 5.0 mg/ml ALT-801, single test): 5.35 mg/mL and 5.33 mg/mL
Polysorbate 80 CMC Value 10.0 mg/ml ALT-801, Average ([5]; F58 buffer pH 7.7, 10.0 mg/ml ALT-801): 10.50 mg/mL
Polysorbate 80 CMC Value 10.0 mg/ml ALT-801 ([5]; F58 buffer pH 7.7, 10.0 mg/ml ALT-801, single test): 10.49 mg/mL and 10.50 mg/mL
Polysorbate 80 CMC Valve No ALT-801, Average ([5]; F58 buffer pH 7.7, no ALT-801): 0.183 mg/mL
Polysorbate 80 CMC Valve No ALT-801 ([5]; F58 buffer pH 7.7, no ALT-801, single test): 0.182 mg/mL and 0.183 mg/mL
Extent of Interaction mg PS80/mg ALT-801 ([5]; […] ALT-801): 1.03 mg/mg
Extent of Interaction moles PS80/molesALT-801 ([5]; […] ALT-801): 3.05 mole/mole

Next, values leading:

EC50 [1, 7]: 0.065 nM
EC50 ([2]; cAMP, CHO cells, 0.1% OVA containing buffers, read-out: pEC50 (SE) hu GLP-1 (converted)): 0.038 nM
Compound: CC[C@H](C)[C@H](NC(=O)[C@H](Cc1ccccc1)NC(=O)[C@H](CCC(=O)O)NC(=O)[C@@H]1CCCCNC(=O)CC[C@H](NC(=O)[C@H](CC(=O)O)NC(=O)[C@H](CC(C)C)NC(=O)[C@H](Cc2ccc(O)cc2)NC(=O)[C@H](CCCCN)NC(=O)[C@H](CO)NC(=O)[C@H](Cc2ccc(O)cc2)NC(=O)[C@H](CC(=O)O)NC(=O)[C@H](CO)NC(=O)[C@@H](NC(=O)[C@H](Cc2ccccc2)NC(=O)[C@@H](NC(=O)CNC(=O)[C@H](CCC(N)=O)NC(=O)C(C)(C)NC(=O)[C@@H](N)Cc2c[nH]cn2)[C@@H](C)O)[C@@H](C)O)C(=O)N[C@@H](CCC(N)=O)C(=O)N[C@@H](C)C(=O)N[C@@H](C)C(=O)N1)C(=O)N[C@@H](CCCCNC(=O)[C@H]1O[C@@H](OCCCCCCCCCCCCCCCC(=O)O)[C@H](O)[C@@H](O)[C@@H]1O)C(=O)N[C@@H](Cc1c[nH]c2ccccc12)C(=O)N[C@@H](CC(C)C)C(=O)N[C@@H](CC(C)C)C(=O)N[C@@H](CCC(N)=O)C(=O)N[C@H](C(N)=O)[C@@H](C)O [analogue 15]

EC50 [1, 7]: 0.086 nM
EC50 ([2]; 0.1% BSA in assay buffer, read-out: EC50 GLP-1R): 1.27 nM
Compound: CC[C@H](C)[C@H](NC(=O)[C@H](Cc1ccccc1)NC(=O)[C@H](CCC(=O)O)NC(=O)[C@@H]1CCCCNC(=O)CC[C@H](NC(=O)[C@H](CC(=O)O)NC(=O)[C@H](CC(C)C)NC(=O)[C@H](Cc2ccc(O)cc2)NC(=O)[C@H](CCCCN)NC(=O)[C@H](CO)NC(=O)[C@H](Cc2ccc(O)cc2)NC(=O)[C@H](CC(=O)O)NC(=O)[C@H](CO)NC(=O)[C@@H](NC(=O)[C@H](Cc2ccccc2)NC(=O)[C@@H](NC(=O)CNC(=O)[C@H](CCC(N)=O)NC(=O)C(C)(C)NC(=O)[C@@H](N)Cc2c[nH]cn2)[C@@H](C)O)[C@@H](C)O)C(=O)N[C@@H](CCC(N)=O)C(=O)N[C@@H](C)C(=O)N[C@@H](C)C(=O)N1)C(=O)N[C@@H](CCCCNC(=O)[C@H]1O[C@@H](OCCCCCCCCCCCCCCCCCC(=O)O)[C@H](O)[C@@H](O)[C@@H]1O)C(=O)N[C@@H](Cc1c[nH]c2ccccc12)C(=O)N[C@@H](CC(C)C)C(=O)N[C@@H](CC(C)C)C(=O)N[C@@H](CCC(N)=O)C(=O)N[C@H](C(N)=O)[C@@H](C)O [analogue 16]

— patent US20210290732A1, “GLP-1R and GCGR Agonists, Formulations, and Methods of Use” (Spitfire Pharma LLC, priority 2020, published 2021)
